# Earlier results as cited in patent publication US12502395B2, “Progestin/testosterone transdermal gel” (The Population Council, Inc., priority 2022, dated 2025).
# Columns and labels:
# [1] = test system: androgenic, estrogenic, or glucocorticoid actions; conditions: at up to x2000 the therapeutic levels
# [2] = most common adverse event; 100 mg/day of T
# pregnancy = conditions: weekly intramuscular injection of 200 mg/week for 12 months
structure (smiles),measurement,setting,value
"C=C1C[C@H]2[C@@H]3CCC4=CC(=O)CC[C@@H]4[C@H]3CC[C@]2(C)[C@@]1(OC(C)=O)C(C)=O [NES, 16-methylene-17α-acetoxy-19-norpregn-4-ene-3,20-dione]","Androgenic, estrogenic, or glucocorticoid actions",[1],"does not carry androgenic, estrogenic, or glucocorticoid actions"
"C[C@]12CC[C@H]3[C@@H](CCC4=CC(=O)CC[C@@]43C)[C@@H]1CC[C@@H]2O [T, Testosterone]","Acne, % of subjects",[2],21%
CCCCCCC(=O)O[C@H]1CC[C@H]2[C@@H]3CCC4=CC(=O)CC[C@]4(C)[C@H]3CC[C@]12C [testosterone enanthate],Pregnancy rate,pregnancy,0.8 pregnancy per 100 person-years of exposure
